Legend:
[1] = system: Phosphoglucomutase-1 (PGM-1) deficiency; conditions: galactose 0.5 to 1 g/kg per day; cited from earlier work
[2] = system: patient with congenital disorder of glycosylation (reduced availability of a uridine-diphospho sugar); test: Treatment of a CDG patient with oral uridine triacetate; assay type: in vivo, human; conditions: 2 grams per square meter of body surface area, three times per day
Method: A patient displaying developmental delays is diagnosed with a congenital disorder of glycosylation by detection of a mutation affecting glycosylation by reducing availability of a uridine-diphospho sugar, corroborated by biochemical measurements in cells from the patient. The patient is treated with oral uridine triacetate at a dose of 2 grams per square meter of body surface area, administered three times per day.

[3] = system: patient with GNE myopathy; test: Treatment of a GNE myopathy patient with N-acetylmannosamine plus uridine triacetate; assay type: in vivo, human; conditions: uridine triacetate 2 g/m2 BSA twice per day with oral N-acetylmannosamine 3 to 10 grams per day
Method: A patient displaying progressive distal muscle weakness, with vacuoles and filamentous inclusions in a muscle biopsy, is diagnosed with GNE myopathy by testing for mutations in GNE, which result in impaired synthesis of endogenous sialic acid. The patient is treated with oral N-acetylmannosamine at a dose of 3 to 10 grams per day. The patient is also treated with uridine triacetate a dosage of 2 grams per square meter of body surface area administered twice per day.

[4] = system: patient with phosphoglucomutase-1 deficiency (Type II CDG); test: Treatment of a phosphoglucomutase-1 deficiency patient with d-galactose plus uridine triacetate; assay type: in vivo, human; conditions: uridine triacetate 2 g/m2 BSA twice per day with 1 gram/kg d-galactose per day
From the text: A patient with multisystem disease consistent with phosphoglucomutase deficiency receives a definitive diagnosis via detection of impaired transferring glycosylation and a mutation in PGM-1.

[5] = system: patient with GPT deficiency (Type II CDG); test: Treatment of a GPT deficiency patient with N-acetylglucosamine plus uridine triacetate; assay type: in vivo, human; conditions: uridine triacetate 2 g/m2 BSA twice per day with N-acetylglucosamine 200 mg/kg per day
Method: A patient displaying severe hypotonia, medically intractable seizures, developmental delay andmicrocephaly is diagnosed with a deficiency of activity of the enzyme GPT, a Type II CDG, by detection of a mutation in its encoding gene DPAGT-1. (“GPT” is the enzyme dolichol phosphate N-acetyl-glucosamine-1 phosphate transferase; “DPAGT-1” is the gene that encodes GPT.) The patient is treated with N-acetylglucosamine at a dose of 200 mg/kg per day. The patient is also treated with uridine triacetate a dosage of 2 grams per square meter of body surface area administered twice per day.

## O=C[C@H](O)[C@@H](O)[C@@H](O)[C@H](O)CO [galactose]
[1]
  symptom resolution: partial resolution of some symptoms

## CC(=O)OC[C@H]1O[C@@H](n2ccc(=O)[nH]c2=O)[C@H](OC(C)=O)[C@@H]1OC(C)=O [uridine triacetate, 2′,3′,5′-tri-O-acetyluridine]
[2]
  response to treatment (protein glycosylation and clinical condition): responds to treatment, displaying biochemical measures of improved protein glycosylation and concurrent improvements in clinical condition
[3]
  clinical response versus N-acetylmannosamine alone: improves the clinical response beyond that achieved with N-acetylmannosamine alone
[4]
  clinical response versus d-galactose alone: improves the clinical response beyond that achieved with d-galactose alone
[5]
  clinical response versus N-acetylglucosamine alone: improves the clinical response beyond that achieved with N-acetylglucosamine alone
